{
  "source": "the supplement of paper PMC10307832",
  "experiment_in_all_cases": "relative viability (nuclei count vs DMSO), 5 days (fraction); higher = more cells survive",
  "key": {"[1]": {"system": "NCI-H2347", "summary_of_the_method": "(§1)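 Lung cancer cell lines, seeded in 1536-well plates, were treated the following day by pin tool with a single drug or with five library-drug doses (not always all listed) in √10 steps on top of a fixed anchor-drug dose. Cells were fixed and nuclei stained in one step after 5 days, and nuclei were counted. Relative viability is the nuclei count for treated wells divided by that for vehicle wells, reported as medians of duplicate plates.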"}, "[2]": {"system": "NCI-H1915", "summary_of_the_method": "as §1"}, "[3]": {"system": "RERF-LC-KJ", "summary_of_the_method": "as §1"}, "[4]": {"system": "LXF-289", "summary_of_the_method": "as §1"}, "[5]": {"system": "NCI-H1755", "summary_of_the_method": "as §1"}, "[6]": {"system": "SW 1573", "summary_of_the_method": "as §1"}, "[7]": {"system": "LC-2-ad", "summary_of_the_method": "as §1"}, "[8]": {"system": "NCI-H1975", "summary_of_the_method": "as §1"}, "[9]": {"system": "HOP-62", "summary_of_the_method": "as §1"}, "[10]": {"system": "NCI-H2228", "summary_of_the_method": "as §1"}, "[11]": {"system": "SK-LU-1", "summary_of_the_method": "as §1"}, "[12]": {"system": "HCC-15", "summary_of_the_method": "as §1"}, "[13]": {"system": "A-427", "summary_of_the_method": "as §1"}, "[14]": {"system": "HCC-78", "summary_of_the_method": "as §1"}, "[15]": {"system": "NCI-H2342", "summary_of_the_method": "as §1"}, "[16]": {"system": "NCI-H1734", "summary_of_the_method": "as §1"}, "[17]": {"system": "NCI-H647", "summary_of_the_method": "as §1"}, "[18]": {"system": "NCI-H358", "summary_of_the_method": "as §1"}, "[19]": {"system": "PC-3 [JPC-3]", "summary_of_the_method": "as §1"}, "[20]": {"system": "NCI-H2126", "summary_of_the_method": "as §1"}},
  "data": [
    {"smiles": "COc1nc(C)cnc1NS(=O)(=O)c1cccnc1-c1ccc(-c2nnco2)cc1", "note": "[Zibotentan] + COc1cc2c(Oc3ccc(NC(=O)C4(C(=O)Nc5ccc(F)cc5)CC4)cc3F)ccnc2cc1OCCCN1CCOCC1 [Foretinib] (partner 0.25 µM)", "values": [
      {"measurement": "relative viability", "setting": "[1]; first compound 0.08 µM", "result": 0.995},
      {"measurement": "relative viability", "setting": "[1]; first compound 0.253 µM", "result": 0.896},
      {"measurement": "relative viability", "setting": "[1]; first compound 0.8 µM", "result": 0.947},
      {"measurement": "relative viability", "setting": "[1]; first compound 2.53 µM", "result": 0.655},
      {"measurement": "relative viability", "setting": "[2]; first compound 0.08 µM", "result": 1.16},
      {"measurement": "relative viability", "setting": "[2]; first compound 0.253 µM", "result": 1.1},
      {"measurement": "relative viability", "setting": "[2]; first compound 0.8 µM", "result": 1.06},
      {"measurement": "relative viability", "setting": "[2]; first compound 2.53 µM", "result": 1.07},
      {"measurement": "relative viability", "setting": "[3]; first compound 0.08 µM", "result": 0.836},
      {"measurement": "relative viability", "setting": "[3]; first compound 0.253 µM", "result": 0.885},
      {"measurement": "relative viability", "setting": "[3]; first compound 0.8 µM", "result": 0.809},
      {"measurement": "relative viability", "setting": "[3]; first compound 2.53 µM", "result": 0.849},
      {"measurement": "relative viability", "setting": "[4]; first compound 0.08 µM", "result": 0.965},
      {"measurement": "relative viability", "setting": "[4]; first compound 0.253 µM", "result": 0.95},
      {"measurement": "relative viability", "setting": "[4]; first compound 0.8 µM", "result": 1.05},
      {"measurement": "relative viability", "setting": "[4]; first compound 2.53 µM", "result": 0.954},
      {"measurement": "relative viability", "setting": "[5]; first compound 0.08 µM", "result": 0.943},
      {"measurement": "relative viability", "setting": "[5]; first compound 0.253 µM", "result": 0.897},
      {"measurement": "relative viability", "setting": "[5]; first compound 0.8 µM", "result": 0.897},
      {"measurement": "relative viability", "setting": "[5]; first compound 2.53 µM", "result": 0.929},
      {"measurement": "relative viability", "setting": "[6]; first compound 0.08 µM", "result": 0.966},
      {"measurement": "relative viability", "setting": "[6]; first compound 0.253 µM", "result": 0.692},
      {"measurement": "relative viability", "setting": "[6]; first compound 0.8 µM", "result": 0.983},
      {"measurement": "relative viability", "setting": "[6]; first compound 2.53 µM", "result": 0.82},
      {"measurement": "relative viability", "setting": "[7]; first compound 0.08 µM", "result": 1.02},
      {"measurement": "relative viability", "setting": "[7]; first compound 0.8 µM", "result": 0.955},
      {"measurement": "relative viability", "setting": "[7]; first compound 2.53 µM", "result": 0.954},
      {"measurement": "relative viability", "setting": "[8]; first compound 0.08 µM", "result": 0.98},
      {"measurement": "relative viability", "setting": "[8]; first compound 0.253 µM", "result": 0.849},
      {"measurement": "relative viability", "setting": "[8]; first compound 0.8 µM", "result": 0.824},
      {"measurement": "relative viability", "setting": "[8]; first compound 2.53 µM", "result": 0.856},
      {"measurement": "relative viability", "setting": "[9]; first compound 0.08 µM", "result": 1.06},
      {"measurement": "relative viability", "setting": "[9]; first compound 0.253 µM", "result": 1.06},
      {"measurement": "relative viability", "setting": "[9]; first compound 0.8 µM", "result": 1.21},
      {"measurement": "relative viability", "setting": "[9]; first compound 2.53 µM", "result": 1.07},
      {"measurement": "relative viability", "setting": "[10]; first compound 0.08 µM", "result": 0.714},
      {"measurement": "relative viability", "setting": "[10]; first compound 0.253 µM", "result": 0.819},
      {"measurement": "relative viability", "setting": "[10]; first compound 0.8 µM", "result": 0.889},
      {"measurement": "relative viability", "setting": "[10]; first compound 2.53 µM", "result": 0.801},
      {"measurement": "relative viability", "setting": "[11]; first compound 0.08 µM", "result": 0.842},
      {"measurement": "relative viability", "setting": "[11]; first compound 0.253 µM", "result": 0.873},
      {"measurement": "relative viability", "setting": "[11]; first compound 0.8 µM", "result": 0.855},
      {"measurement": "relative viability", "setting": "[11]; first compound 2.53 µM", "result": 0.827},
      {"measurement": "relative viability", "setting": "[12]; first compound 0.08 µM", "result": 1.05},
      {"measurement": "relative viability", "setting": "[12]; first compound 0.8 µM", "result": 1.03},
      {"measurement": "relative viability", "setting": "[12]; first compound 2.53 µM", "result": 1.05},
      {"measurement": "relative viability", "setting": "[13]; first compound 0.08 µM", "result": 1.14},
      {"measurement": "relative viability", "setting": "[13]; first compound 0.253 µM", "result": 1.1},
      {"measurement": "relative viability", "setting": "[13]; first compound 0.8 µM", "result": 1.1},
      {"measurement": "relative viability", "setting": "[13]; first compound 2.53 µM", "result": 1.19},
      {"measurement": "relative viability", "setting": "[14]; first compound 0.08 µM", "result": 0.535},
      {"measurement": "relative viability", "setting": "[14]; first compound 0.253 µM", "result": 0.484},
      {"measurement": "relative viability", "setting": "[14]; first compound 0.8 µM", "result": 0.588},
      {"measurement": "relative viability", "setting": "[14]; first compound 2.53 µM", "result": 0.518},
      {"measurement": "relative viability", "setting": "[15]; first compound 0.08 µM", "result": 1.08},
      {"measurement": "relative viability", "setting": "[15]; first compound 0.253 µM", "result": 0.954},
      {"measurement": "relative viability", "setting": "[15]; first compound 0.8 µM", "result": 1.03},
      {"measurement": "relative viability", "setting": "[15]; first compound 2.53 µM", "result": 1.13},
      {"measurement": "relative viability", "setting": "[16]; first compound 0.08 µM", "result": 0.875},
      {"measurement": "relative viability", "setting": "[16]; first compound 0.253 µM", "result": 0.773},
      {"measurement": "relative viability", "setting": "[16]; first compound 0.8 µM", "result": 0.883},
      {"measurement": "relative viability", "setting": "[16]; first compound 2.53 µM", "result": 0.812},
      {"measurement": "relative viability", "setting": "[17]; first compound 0.08 µM", "result": 1.13},
      {"measurement": "relative viability", "setting": "[17]; first compound 0.253 µM", "result": 0.996},
      {"measurement": "relative viability", "setting": "[17]; first compound 0.8 µM", "result": 1.06},
      {"measurement": "relative viability", "setting": "[17]; first compound 2.53 µM", "result": 1.29},
      {"measurement": "relative viability", "setting": "[18]; first compound 0.08 µM", "result": 0.809},
      {"measurement": "relative viability", "setting": "[18]; first compound 0.253 µM", "result": 0.485},
      {"measurement": "relative viability", "setting": "[18]; first compound 0.8 µM", "result": 0.595},
      {"measurement": "relative viability", "setting": "[18]; first compound 2.53 µM", "result": 0.57},
      {"measurement": "relative viability", "setting": "[19]; first compound 0.08 µM", "result": 1.05},
      {"measurement": "relative viability", "setting": "[19]; first compound 0.253 µM", "result": 1.05},
      {"measurement": "relative viability", "setting": "[19]; first compound 0.8 µM", "result": 1.03},
      {"measurement": "relative viability", "setting": "[19]; first compound 2.53 µM", "result": 0.973},
      {"measurement": "relative viability", "setting": "[20]; first compound 0.08 µM", "result": 1.33},
      {"measurement": "relative viability", "setting": "[20]; first compound 0.253 µM", "result": 1.26},
      {"measurement": "relative viability", "setting": "[20]; first compound 0.8 µM", "result": 0.982},
      {"measurement": "relative viability", "setting": "[20]; first compound 2.53 µM", "result": 1.14}
    ]}
  ]
}
